pEC50, pIC50: −log10 of the molar value. Each block holds one compound with its values, some of them ahead of it. Peptide text beside a SMILES is read from it.
How the values were obtained:
[1] = Inhibition of amino terminal GST tagged HCMV protease P12A mutant (1 to 256 residues) expressed in Escherichia coli BL21 (DE3) cells using 5-carboxyfluorescein [FAM]-RGVVNASSRLAK as peptide substrate incubated for 3 hrs by fluorescence based analysis; design: species or system Human betaherpesvirus 5
[2] = Inhibition of N-terminal 6 His-tagged HHV6 protease P12A mutant (2 to 230 residues) expressed in Escherichia coli BL21 cells using 5FAM-KPSILNASLTPETVKK as peptide substrate incubated for 3 hrs by fluorescence based analysis; design: species or system Human betaherpesvirus 6
[3] = Inhibition of amino terminal GST tagged HCMV protease F10A mutant (1 to 256 residues) expressed in Escherichia coli BL21 (DE3) cells using 5-carboxyfluorescein [FAM]-RGVVNASSRLAK as peptide substrate incubated for 3 hrs by fluorescence based analysis; design: species or system Human betaherpesvirus 5
[4] = Inhibition of N-terminal 6 His-tagged HHV6 protease F10A mutant (2 to 230 residues) expressed in Escherichia coli BL21 cells using 5FAM-KPSILNASLTPETVKK as peptide substrate incubated for 3 hrs by fluorescence based analysis; design: species or system Human betaherpesvirus 6
[5] = Inhibition of amino terminal GST tagged HCMV protease (1 to 256 residues) expressed in Escherichia coli BL21 (DE3) cells using 5-carboxyfluorescein [FAM]-RGVVNASSRLAK as peptide substrate incubated for 3 hrs by fluorescence based analysis; design: species or system Human betaherpesvirus 5
[6] = Inhibition of N-terminal 6 His-tagged HHV6 protease (2 to 230 residues) expressed in Escherichia coli BL21 cells using 5FAM-KPSILNASLTPETVKK as peptide substrate incubated for 3 hrs by fluorescence based analysis; design: species or system Human betaherpesvirus 6
Human betaherpesvirus 5 = assay: Antiviral activity against HCMV infected in HFF cells assessed as reduction in viral replication; format: functional, organism-based; settings: Human betaherpesvirus 5, HFF
[7] = Cytotoxicity against HFF cells assessed as inhibition in cell viability incubated for 5 days by luminescence based analysis; format: toxicity; settings: human, time 5 day
[8] = Apparent permeability across apical to basolateral side in LLC-PK1 cells at 2 uM incubated for 2 hrs by LC/MS/MS method; format: ADME, cell-based, Sus scrofa; settings: pig
[9] = Inhibition of amino terminal GST tagged HCMV protease L11A mutant (1 to 256 residues) expressed in Escherichia coli BL21 (DE3) cells using 5-carboxyfluorescein [FAM]-RGVVNASSRLAK as peptide substrate incubated for 3 hrs by fluorescence based analysis; design: species or system Human betaherpesvirus 5
[10] = Inhibition of N-terminal 6 His-tagged HHV6 protease L11A mutant (2 to 230 residues) expressed in Escherichia coli BL21 cells using 5FAM-KPSILNASLTPETVKK as peptide substrate incubated for 3 hrs by fluorescence based analysis; design: species or system Human betaherpesvirus 6

Compound: CC[C@H](C)[C@H](NC(=O)[C@H](Cc1ccccc1)NC(C)=O)C(=O)N[C@H](C(=O)NCC(=O)N[C@@H](Cc1c[nH]cn1)C(=O)N[C@@H](Cc1ccc(O)cc1)C(=O)N[C@@H](Cc1c[nH]c2ccccc12)C(=O)N[C@H](C(=O)N[C@@H](CCCNC(=N)N)C(=O)N[C@@H](Cc1ccccc1)C(=O)N[C@@H](CC(C)C)C(=O)N[C@@H](C)C(=O)N[C@@H](CS)C(=O)NCC(N)=O)C(C)C)[C@@H](C)O (Ac-FITGHYWVRFLACG-NH2)
pIC50 [1]: > 7.12
pIC50 [2]: > 7.12

Compound: CC[C@H](C)[C@H](NC(=O)[C@H](Cc1ccccc1)NC(C)=O)C(=O)N[C@H](C(=O)NCC(=O)N[C@@H](Cc1c[nH]cn1)C(=O)N[C@@H](Cc1ccc(O)cc1)C(=O)N[C@@H](Cc1c[nH]c2ccccc12)C(=O)N[C@H](C(=O)N[C@@H](CCCNC(=N)N)C(=O)N[C@@H](C)C(=O)N[C@@H](CC(C)C)C(=O)N1CCC[C@H]1C(=O)N[C@@H](CS)C(=O)NCC(N)=O)C(C)C)[C@@H](C)O (Ac-FITGHYWVRALPCG-NH2)
pIC50 [3]: > 7.12
pIC50 [4]: > 7.12

pIC50 [5]: 5.60
pIC50 [6]: 6.48
pEC50 (Human betaherpesvirus 5): 4.22
Papp A→B at 2 h, 2 µM [8]: 1.3 ×10⁻⁶ cm/s
Compound: Cc1ccc([C@@H](c2cn(C3CCCC3)nc2-c2ccccc2C)n2cccc(N3C[C@H](C(=O)NC45CCC(CC4)NC5=O)N(C)C3=O)c2=O)cc1
CC50 at 120 h [7]: 51 µM

Compound: CC[C@H](C)[C@H](NC(=O)[C@H](Cc1ccccc1)NC(C)=O)C(=O)N[C@H](C(=O)NCC(=O)N[C@@H](Cc1c[nH]cn1)C(=O)N[C@@H](Cc1ccc(O)cc1)C(=O)N[C@@H](Cc1c[nH]c2ccccc12)C(=O)N[C@H](C(=O)N[C@@H](CCCNC(=N)N)C(=O)N[C@@H](Cc1ccccc1)C(=O)N[C@@H](C)C(=O)N1CCC[C@H]1C(=O)N[C@@H](CS)C(=O)NCC(N)=O)C(C)C)[C@@H](C)O (Ac-FITGHYWVRFAPCG-NH2)
pIC50 [9]: > 7.12
pIC50 [10]: > 7.12
